Values joined by “and” are separate entries in the source; they are usually repeats but may differ in a detail not shown here. Identical values can stand only once.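 96-well plates; 48 h exposure; 5 concentrations. Endpoints by linear interpolation between flanking doses. Not reached: highest tested concentration assigned. Abbreviation: GI50, concentration required for 50% inhibition of growth. TGI marks complete inhibition of growth.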
Columns and labels:
Assay in all cases: growth of human tumour cells (NCI), 48 h
DLD-1 colon = tested on: DLD-1 colon
KM20L2 colon = tested on: KM20L2 colon
RXF 393 renal = tested on: RXF 393 renal
TK-10 renal = tested on: TK-10 renal
HCT-116 colon = tested on: HCT-116 colon
HOP-92 NSCLC = tested on: HOP-92 NSCLC
NCI-H460 lung = tested on: NCI-H460 lung
SF-268 CNS = tested on: SF-268 CNS
T-47D breast = tested on: T-47D breast
DMS 114 small cell lung = tested on: DMS 114 small cell lung
HT29 colon = tested on: HT29 colon
786-0 renal = tested on: 786-0 renal
PC-3 prostate = tested on: PC-3 prostate
SN12C renal = tested on: SN12C renal
EKVX NSCLC = tested on: EKVX NSCLC
SK-MEL-28 melanoma = tested on: SK-MEL-28 melanoma
MDA-MB-435 = tested on: MDA-MB-435
UO-31 renal = tested on: UO-31 renal
SR leukemia = tested on: SR leukemia
HCC-2998 colon = tested on: HCC-2998 colon
XF 498 CNS = tested on: XF 498 CNS
UACC-257 melanoma = tested on: UACC-257 melanoma
U251 CNS = tested on: U251 CNS
ACHN renal = tested on: ACHN renal
HCT-15 colon = tested on: HCT-15 colon
SNB-78 CNS = tested on: SNB-78 CNS
SW-620 colon = tested on: SW-620 colon
MOLT-4 leukemia = tested on: MOLT-4 leukemia
BT-549 breast = tested on: BT-549 breast
COLO 205 colon = tested on: COLO 205 colon
SF-295 CNS = tested on: SF-295 CNS
LOX IMVI melanoma = tested on: LOX IMVI melanoma
KM12 colon = tested on: KM12 colon
OVCAR-8 ovarian = tested on: OVCAR-8 ovarian
SK-OV-3 ovarian = tested on: SK-OV-3 ovarian
OVCAR-3 ovarian = tested on: OVCAR-3 ovarian
K-562 leukemia = tested on: K-562 leukemia
M19-MEL melanoma = tested on: M19-MEL melanoma
LXFL 529 NSCLC = tested on: LXFL 529 NSCLC
HOP-62 NSCLC = tested on: HOP-62 NSCLC
OVCAR-4 ovarian = tested on: OVCAR-4 ovarian
NCI-H23 lung = tested on: NCI-H23 lung
M14 melanoma = tested on: M14 melanoma
A498 renal = tested on: A498 renal
SK-MEL-2 melanoma = tested on: SK-MEL-2 melanoma
HS 578T breast = tested on: HS 578T breast
MDA-MB-231 breast = tested on: MDA-MB-231 breast
HL-60(TB) leukemia = tested on: HL-60(TB) leukemia
CCRF-CEM leukemia = tested on: CCRF-CEM leukemia
SNB-19 CNS = tested on: SNB-19 CNS
SK-MEL-5 melanoma = tested on: SK-MEL-5 melanoma
SF-539 CNS = tested on: SF-539 CNS
MALME-3M melanoma = tested on: MALME-3M melanoma
A549 NSCLC = tested on: A549 NSCLC
MCF7 breast = tested on: MCF7 breast
MDA-N = tested on: MDA-N
SNB-75 CNS = tested on: SNB-75 CNS
UACC-62 melanoma = tested on: UACC-62 melanoma
NCI-H226 lung = tested on: NCI-H226 lung
DU-145 prostate = tested on: DU-145 prostate
IGROV1 ovarian = tested on: IGROV1 ovarian
OVCAR-5 ovarian = tested on: OVCAR-5 ovarian
NCI/ADR-RES ovarian = tested on: NCI/ADR-RES ovarian
HOP-18 NSCLC = tested on: HOP-18 NSCLC
DMS 273 small cell lung = tested on: DMS 273 small cell lung
RPMI-8226 leukemia = tested on: RPMI-8226 leukemia
NCI-H522 lung = tested on: NCI-H522 lung

Q: With `O=c1c(Cl)c(Cl)cnn1-c1ccccc1` as the compound, how does the TGI (DLD-1 colon) read?
A: 2.84 µM and 5.22 µM

Q: What about the GI50 (KM20L2 colon) of the same compound?
A: 0.655 µM and 6.44 µM

Q: What about the TGI (KM20L2 colon) of the same compound?
A: 24.5 µM and 15.7 µM

Q: What about the TGI (RXF 393 renal) of the same compound?
A: 4.21 µM and 5.38 µM

Q: What about the TGI (TK-10 renal) of the same compound?
A: 24.7 µM and 29.8 µM

Q: And the TGI (HCT-116 colon)?
A: 3.5 µM and 6.4 µM

Q: And the GI50 (HOP-92 NSCLC)?
A: 1.98 µM and 7.58 µM

Q: And the TGI (HOP-92 NSCLC)?
A: 3.61 µM and 16 µM

Q: What about the TGI (NCI-H460 lung) of the same compound?
A: 10.3 µM and 8.61 µM

Q: And the TGI (SF-268 CNS)?
A: 15.7 µM and 25.6 µM

Q: What about the TGI (T-47D breast) of the same compound?
A: 16.4 µM and 5.04 µM

Q: What about the TGI (DMS 114 small cell lung) of the same compound?
A: 5.76 µM and 3.09 µM

Q: And the GI50 (HT29 colon)?
A: 1.75 µM and 3.77 µM

Q: And the TGI (HT29 colon)?
A: 3.38 µM and 8.06 µM

Q: And the TGI (786-0 renal)?
A: 11.1 µM and 12.1 µM

Q: What about the GI50 (PC-3 prostate) of the same compound?
A: 5.42 µM and 1.77 µM

Q: What about the TGI (PC-3 prostate) of the same compound?
A: 12 µM and 3.23 µM

Q: And the TGI (SN12C renal)?
A: 8.88 µM and 4.01 µM

Q: What about the GI50 (EKVX NSCLC) of the same compound?
A: 5.44 µM and 15.4 µM

Q: And the TGI (EKVX NSCLC)?
A: 10.5 µM and 33.4 µM

Q: And the TGI (SK-MEL-28 melanoma)?
A: 6.54 µM and 7.29 µM

Q: What about the TGI (MDA-MB-435) of the same compound?
A: 3.58 µM and 3.73 µM

Q: And the TGI (UO-31 renal)?
A: 8.91 µM and 7.47 µM

Q: And the TGI (SR leukemia)?
A: > 19.7 µM and 3.92 µM

Q: What about the TGI (HCC-2998 colon) of the same compound?
A: 9.66 µM and 6.39 µM

Q: And the TGI (XF 498 CNS)?
A: 5.47 µM

Q: And the TGI (UACC-257 melanoma)?
A: 14.1 µM and 48.4 µM

Q: And the TGI (U251 CNS)?
A: 3.37 µM and 7.42 µM

Q: And the TGI (ACHN renal)?
A: 11.6 µM and 13.5 µM

Q: What about the TGI (HCT-15 colon) of the same compound?
A: 3.51 µM and 5.38 µM

Q: And the TGI (SNB-78 CNS)?
A: 20.8 µM

Q: And the GI50 (SW-620 colon)?
A: 2 µM

Q: What about the TGI (SW-620 colon) of the same compound?
A: 5.5 µM

Q: What about the TGI (MOLT-4 leukemia) of the same compound?
A: 7.19 µM and 4.14 µM

Q: What about the TGI (BT-549 breast) of the same compound?
A: 3.12 µM and 3.19 µM

Q: What about the GI50 (COLO 205 colon) of the same compound?
A: 1.74 µM and 3.54 µM

Q: What about the TGI (COLO 205 colon) of the same compound?
A: 3.62 µM and 7.92 µM

Q: And the GI50 (SF-295 CNS)?
A: 5.18 µM and 16 µM

Q: What about the TGI (SF-295 CNS) of the same compound?
A: 9.7 µM and 32.3 µM

Q: And the TGI (LOX IMVI melanoma)?
A: 3.26 µM and 4.03 µM

Q: And the TGI (KM12 colon)?
A: 21.3 µM and 23.5 µM

Q: And the TGI (OVCAR-8 ovarian)?
A: 6.05 µM and 11.5 µM

Q: And the GI50 (SK-OV-3 ovarian)?
A: 8.36 µM and 3.44 µM

Q: What about the TGI (SK-OV-3 ovarian) of the same compound?
A: 21.2 µM and 10.6 µM

Q: And the TGI (OVCAR-3 ovarian)?
A: 4.22 µM and 3.94 µM

Q: What about the GI50 (K-562 leukemia) of the same compound?
A: 2.13 µM

Q: What about the TGI (K-562 leukemia) of the same compound?
A: 5.14 µM and 4.67 µM

Q: What about the TGI (M19-MEL melanoma) of the same compound?
A: 11.7 µM and 8.03 µM

Q: What about the TGI (LXFL 529 NSCLC) of the same compound?
A: 11.9 µM and 3.13 µM

Q: What about the TGI (HOP-62 NSCLC) of the same compound?
A: 16.7 µM and 32.1 µM

Q: And the TGI (OVCAR-4 ovarian)?
A: 3.95 µM and 2.38 µM

Q: And the GI50 (NCI-H23 lung)?
A: 2.04 µM and 5.73 µM

Q: And the TGI (NCI-H23 lung)?
A: 5.68 µM and 13.3 µM

Q: And the TGI (M14 melanoma)?
A: 3.25 µM and 3.42 µM

Q: And the TGI (A498 renal)?
A: 31.6 µM and 31.2 µM

Q: And the TGI (SK-MEL-2 melanoma)?
A: 15.5 µM and 14.5 µM

Q: What about the TGI (HS 578T breast) of the same compound?
A: 7.02 µM and 20.3 µM

Q: What about the TGI (MDA-MB-231 breast) of the same compound?
A: 3.34 µM

Q: And the GI50 (HL-60(TB) leukemia)?
A: 0.774 µM

Q: What about the TGI (HL-60(TB) leukemia) of the same compound?
A: 10.7 µM and 2.11 µM

Q: And the GI50 (CCRF-CEM leukemia)?
A: 0.825 µM and 1.8 µM

Q: And the TGI (CCRF-CEM leukemia)?
A: 9.58 µM and 5.53 µM

Q: What about the GI50 (SNB-19 CNS) of the same compound?
A: 4.93 µM and > 23.2 µM

Q: And the TGI (SNB-19 CNS)?
A: 13.7 µM and > 41.7 µM

Q: And the GI50 (SK-MEL-5 melanoma)?
A: 2.42 µM and 7.82 µM

Q: What about the TGI (SK-MEL-5 melanoma) of the same compound?
A: 5.66 µM and 14.2 µM

Q: What about the GI50 (SF-539 CNS) of the same compound?
A: 4.74 µM and 9.8 µM

Q: And the TGI (SF-539 CNS)?
A: 10.2 µM and 23.2 µM

Q: And the TGI (MALME-3M melanoma)?
A: 7.91 µM and 9.73 µM

Q: What about the TGI (A549 NSCLC) of the same compound?
A: 26.9 µM and 37.6 µM

Q: What about the TGI (MCF7 breast) of the same compound?
A: 18.9 µM and 13.6 µM

Q: What about the TGI (MDA-N) of the same compound?
A: 6.77 µM and 3.65 µM

Q: And the TGI (SNB-75 CNS)?
A: 5.71 µM and 29.7 µM

Q: What about the TGI (UACC-62 melanoma) of the same compound?
A: 3.34 µM and 5.36 µM

Q: And the TGI (NCI-H226 lung)?
A: 12.9 µM and 21.4 µM

Q: And the TGI (DU-145 prostate)?
A: 28 µM and 27.8 µM

Q: And the GI50 (IGROV1 ovarian)?
A: 1.81 µM and 7.02 µM

Q: What about the TGI (IGROV1 ovarian) of the same compound?
A: 3.37 µM and 21.5 µM

Q: What about the GI50 (OVCAR-5 ovarian) of the same compound?
A: 19.7 µM and 9.53 µM

Q: What about the TGI (OVCAR-5 ovarian) of the same compound?
A: 38.8 µM and 19.8 µM

Q: What about the TGI (NCI/ADR-RES ovarian) of the same compound?
A: 3.97 µM

Q: What about the TGI (HOP-18 NSCLC) of the same compound?
A: 22.8 µM and 21.9 µM

Q: What about the GI50 (DMS 273 small cell lung) of the same compound?
A: 2.03 µM and 5.59 µM

Q: And the TGI (DMS 273 small cell lung)?
A: 3.94 µM and 12.4 µM

Q: What about the TGI (RPMI-8226 leukemia) of the same compound?
A: > 38.7 µM and 27 µM

Q: And the TGI (NCI-H522 lung)?
A: 2.82 µM and 3.79 µM
